# Experimental data: ChEMBL document CHEMBL1201862, “PubChem BioAssay data set” (2004)
#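 48-hour exposure; five concentrations; linearly interpolated endpoints. Here, GI50 denotes the concentration required for 50% inhibition of growth.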 The source made the active and inactive calls. Rule as the data show it: active = GI50 up to about 1.1 µM and inactive = higher.
# Assays:
# Assay in all cases: NCI tumour cell line growth inhibition, 48 h
# 786-0 = test system: 786-0
# A498 = test system: A498
# A549 = test system: A549
# ACHN = test system: ACHN
# BT-549 = test system: BT-549
# CAKI-1 = test system: CAKI-1
# CCRF-CEM = test system: CCRF-CEM
# COLO 205 = test system: COLO 205
# DU-145 = test system: DU-145
# EKVX = test system: EKVX
# HCC 2998 = test system: HCC 2998
# HCT-116 = test system: HCT-116
# HCT-15 = test system: HCT-15
# HOP-62 = test system: HOP-62
# HOP-92 = test system: HOP-92
# HT-29 = test system: HT-29
# Hs-578T = test system: Hs-578T
# IGROV-1 = test system: IGROV-1
# K562 = test system: K562
# KM12 = test system: KM12
# LOX IMVI = test system: LOX IMVI
# M14 = test system: M14
# MCF7 = test system: MCF7
# MDA-MB-231 = test system: MDA-MB-231
# MDA-MB-435 = test system: MDA-MB-435
# MDA-N = test system: MDA-N
# Malme-3M = test system: Malme-3M
# NCI-H226 = test system: NCI-H226
# NCI-H23 = test system: NCI-H23
# NCI-H460 = test system: NCI-H460
# NCI-H522 = test system: NCI-H522
# NCI/ADR-RES = test system: NCI/ADR-RES
# OVCAR-3 = test system: OVCAR-3
# OVCAR-4 = test system: OVCAR-4
# OVCAR-5 = test system: OVCAR-5
# OVCAR-8 = test system: OVCAR-8
# PC-3 = test system: PC-3
# RPMI-8226 = test system: RPMI-8226
# RXF 393 = test system: RXF 393
# SF-268 = test system: SF-268
# SF-295 = test system: SF-295
# SF-539 = test system: SF-539
# SK-MEL-28 = test system: SK-MEL-28
# SK-MEL-2 = test system: SK-MEL-2
# SK-MEL-5 = test system: SK-MEL-5
# SK-OV-3 = test system: SK-OV-3
# SN12C = test system: SN12C
# SNB-19 = test system: SNB-19
# SW-620 = test system: SW-620
# T47D = test system: T47D
# TK-10 = test system: TK-10
# U-251 = test system: U-251
# UACC-257 = test system: UACC-257
# UACC-62 = test system: UACC-62
# UO-31 = test system: UO-31
smiles,measurement,setting,value
Cc1[nH]c(C)c(CN(C)C)c1CN(C)C,GI50,786-0,> 100 µM (inactive)
same,GI50,A498,> 100 µM (inactive)
same,GI50,A549,> 100 µM (inactive)
same,GI50,ACHN,> 100 µM (inactive)
same,GI50,BT-549,> 100 µM (inactive)
same,GI50,CAKI-1,> 100 µM (inactive)
same,GI50,CCRF-CEM,> 100 µM (inactive)
same,GI50,COLO 205,> 100 µM (inactive)
same,GI50,DU-145,> 100 µM (inactive)
same,GI50,EKVX,> 100 µM (inactive)
same,GI50,HCC 2998,> 100 µM (inactive)
same,GI50,HCT-116,> 100 µM (inactive)
same,GI50,HCT-15,> 100 µM
same,GI50,HOP-62,> 100 µM (inactive)
same,GI50,HOP-92,> 100 µM (inactive)
same,GI50,HT-29,> 100 µM (inactive)
same,GI50,Hs-578T,> 100 µM (inactive)
same,GI50,IGROV-1,> 100 µM (inactive)
same,GI50,K562,> 100 µM (inactive)
same,GI50,KM12,> 100 µM (inactive)
same,GI50,LOX IMVI,> 100 µM (inactive)
same,GI50,M14,> 100 µM (inactive)
same,GI50,MCF7,> 100 µM (inactive)
same,GI50,MDA-MB-231,> 100 µM (inactive)
same,GI50,MDA-MB-435,> 100 µM (inactive)
same,GI50,MDA-N,> 100 µM (inactive)
same,GI50,Malme-3M,> 100 µM (inactive)
same,GI50,NCI-H226,> 100 µM (inactive)
same,GI50,NCI-H23,> 100 µM (inactive)
same,GI50,NCI-H460,> 100 µM (inactive)
same,GI50,NCI-H522,> 100 µM (inactive)
same,GI50,NCI/ADR-RES,> 100 µM (inactive)
same,GI50,OVCAR-3,> 100 µM (inactive)
same,GI50,OVCAR-4,> 100 µM (inactive)
same,GI50,OVCAR-5,> 100 µM (inactive)
same,GI50,OVCAR-8,> 100 µM (inactive)
same,GI50,PC-3,> 100 µM (inactive)
same,GI50,RPMI-8226,> 100 µM (inactive)
same,GI50,RXF 393,> 100 µM (inactive)
same,GI50,SF-268,> 100 µM (inactive)
same,GI50,SF-295,> 100 µM (inactive)
same,GI50,SF-539,> 100 µM (inactive)
same,GI50,SK-MEL-28,> 100 µM (inactive)
same,GI50,SK-MEL-2,> 100 µM (inactive)
same,GI50,SK-MEL-5,> 100 µM (inactive)
same,GI50,SK-OV-3,> 100 µM (inactive)
same,GI50,SN12C,> 100 µM (inactive)
same,GI50,SNB-19,> 100 µM (inactive)
same,GI50,SW-620,> 100 µM (inactive)
same,GI50,T47D,> 100 µM (inactive)
same,GI50,TK-10,> 100 µM (inactive)
same,GI50,U-251,> 100 µM (inactive)
same,GI50,UACC-257,> 100 µM (inactive)
same,GI50,UACC-62,> 100 µM (inactive)
same,GI50,UO-31,> 100 µM (inactive)
